Here are results for 5 compounds from PMC10376326, “Novel Acylselenourea Derivatives: Dual Molecules with Anticancer and Radical Scavenging Activity” (Antioxidants, 2023).

The structures appear in SMILES notation.

The subject of series [1] is HTB-54 (lung) cancer cell line. Put plainly: MTT cell viability assay, HTB-54. Format: cell-based, human. The note with it: for activity at 10 µM / activity at 50 µM: Homo sapiens, HTB-54, 48 h; for activity at 10 µM: read-out: Cell growth %, HTB-54, 10 µM, 48 h, MTT; for activity at 50 µM: read-out: Cell growth %, HTB-54, 50 µM, 48 h, MTT.
The test system of series [2] is MDA-MB-231 (breast) cancer cell line. The experiment in a line: MTT cell viability assay, MDA-MB-231. Format: cell-based, human. The conditions noted are these: for activity at 10 µM / activity at 50 µM: Homo sapiens, MDA-MB-231, 48 h; for activity at 10 µM: read-out: Cell growth %, MDA-MB-231, 10 µM, 48 h, MTT; for activity at 50 µM: read-out: Cell growth %, MDA-MB-231, 50 µM, 48 h, MTT. An outline of the steps: (§1)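 MDA-MB-231, HTB-54 and DU-145 grown in RPMI 1640, HT-29 in McCoy's 5A (10% FBS). Output is % cell growth; IC50 determined; ≥3 experiments in quadruplicate.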

For series [3], the system named is DU-145 (prostate) cancer cell line. Put plainly: MTT cell viability assay, DU-145. Format: cell-based, human. The note with it: for activity at 10 µM / activity at 50 µM: Homo sapiens, DU-145, 48 h; for activity at 10 µM: read-out: Cell growth %, DU-145, 10 µM, 48 h, MTT; for activity at 50 µM: read-out: Cell growth %, DU-145, 50 µM, 48 h, MTT. In outline: as §1

Series [4] concerns HTB-54 (lung) cancer cell line. On the set-up: method as in PMID 22397496. The note with it: cited from earlier work.
Series [5] deals with non-malignant BEAS-2B lung cell line. Also noted: method as in doi:10.30918/IRJMMS.72.19.022. The note with it: cited from earlier work.
Series [6] is described as follows: DPPH radical scavenging assay. Format: biochemical. In outline: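 Acylselenoureas at 0.003 and 0.03 mg/mL (final dilutions from DMSO stock, via methanol) mixed with DPPH• prepared at 0.04 mg/mL in methanol. Absorbance decrease at 517 nm followed 0–120 min; % scavenging calculated relative to negative control, triplicates.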
Series [7] has as its system HT-29 (colon) cancer cell line. The experiment in a line: MTT cell viability assay, HT-29. Format: cell-based. The conditions noted are these: Homo sapiens, HT-29, 48 h, read-out: Cell growth %; for activity at 50 µM: HT-29, 50 µM; for activity at 10 µM: HT-29, 10 µM. In outline:
as §1

For series [8], the system named is MDA-MB-231, HT-29, HTB-54 and DU-145 cancer cell lines. The experiment in a line: MTT cell viability assay, statements over the panel of cancer cell lines. Type of series: cell-based, human. The conditions noted are these: 10 µM, over the four cancer cell lines. On the procedure:
Cell lines were purchased from the American Type Culture Collection (ATCC). Cell lines MDA-MB-231, HTB-54, DU-145, and BEAS-2B were cultured in RPMI 1640 medium (Gibco, Thermo Fisher Scientific, Gaithersburg, MD, USA) supplemented with 10% fetal bovine serum (FBS; Gibco), 100 units/mL penicillin, and […] streptomycin (Gibco). HT-29 cell line was grown in McCoy’s 5A (Gibco), 10% FBS, 100 units/mL penicillin, and 100 μg/mL streptomycin. Cells were maintained at 37 °C and 5% CO2. The culture medium was changed every three days.
The cell viability of each compound was measured by MTT colorimetric assay. Each compound was dissolved in DMSO at a concentration of 0.01 M. Each compound was tested at two different concentrations (10 and 50 µM) in MDA-MB-231 (breast), HTB-54 (lung), DU-145 (prostate), and HT-29 (colon) human cancer cell lines. Serial dilutions were prepared with supplemented culture medium. […] IC50 and selectivity indexes (SI) were determined.
Briefly, 1 × 10^4 tumor cells per well were grown in 96-well plates for 24 h. Then, these cells were incubated for 48 h with either DMSO (control) or a different concentration of each of the tested compounds. The cell viability was determined by adding 20 μL of MTT two hours and a half before the termination point. After this time, the culture medium was removed. The resulting formazan crystals were dissolved in 50 μL of DMSO, and the absorbance was measured at 570 nm. Results are expressed as % cell growth. The data were obtained from at least three independent experiments performed in quadruplicate.

`N.N.[Cl][Pt][Cl]` [Cisplatin, reference compound]: the SI in [1] (IC50 (BEAS-2B)/IC50 (HTB-54)) came to 0.63. Besides, the IC50 in series [2] (Breast, MTT, 48 h, read-out: IC50 MDA-MB-231) was 5.5 ± 0.5 µM; in series [3] (Prostate, MTT, 48 h, read-out: IC50 DU-145) it was 6.2 ± 0.1 µM; in series [4], 13.7 µM; in series [5], 8.63 µM.
`C#CCNC(=[Se])NC(=O)/C=C/c1ccco1` [Compound 3.III, (E)-3-(furan-2-yl)-N-(prop-2-in-1-ylcarbamoselenoyl)acrylamide] yielded a melting point of 118 to 119 °C. The inhibition in series [6] (0.003 mg/mL, 0 min) turned out to be 0.9 ± 1.9%. In addition, in series [6] (0.003 mg/mL, 5 min), the inhibition was 1.2 ± 1.8%. The inhibition in series [6] (0.003 mg/mL, 15 min) came to 1.9 ± 1.7%. In addition, the inhibition in series [6] (0.003 mg/mL, 30 min) was 2.7 ± 1.7%. The compound further showed an inhibition in series [6] (0.003 mg/mL, 60 min) of 4.1 ± 1.7%. Moreover, the inhibition in series [6] (0.003 mg/mL, 90 min) is 5.3 ± 1.7%. Moreover, the inhibition in series [6] (0.003 mg/mL, 120 min) amounted to 6.2 ± 1.6%. This compound also showed an inhibition in series [6] (0.03 mg/mL, 0 min) of 2.6 ± 1.3%. This compound gave an inhibition in series [6] (0.03 mg/mL, 5 min) of 6.3 ± 1.1%. For the same compound, the inhibition in series [6] (0.03 mg/mL, 15 min) came to 10.9 ± 0.9%. Besides, the inhibition in [6] (0.03 mg/mL, 30 min) came out at 17.5 ± 0.4%. Moreover, the inhibition in [6] (0.03 mg/mL, 60 min) turned out to be 28.4 ± 0.4%. This compound came in with an inhibition in series [6] (0.03 mg/mL, 90 min) of 37.1 ± 0.3%. In series [6] (0.03 mg/mL, 120 min), this compound yielded an inhibition of 45.9 ± 0.6%. In series [1], the activity at 10 µM was 74.2 ± 4% and the activity at 50 µM was 35.3 ± 5.7%. In series [2], the activity at 10 µM stood at 66.8 ± 7.2% and the activity at 50 µM is 20.1 ± 8%. In series [3], the activity at 10 µM came to 86.5 ± 9.3% and the activity at 50 µM came to 24.7 ± 4.9%. Further, the activity at 50 µM in [7] was 51.4 ± 6%.
With `C=CCNC(=[Se])NC(=O)/C=C/c1ccco1` [Compound 3.II, (E)-N-(allylcarbamoselenoyl)-3-(furan-2-yl)acrylamide], the melting point is 104 to 105 °C. The compound also displayed an inhibition in series [6] (0.003 mg/mL, 0 min) of 0%. Also, the inhibition in series [6] (0.003 mg/mL, 5 min) came out at 0%. In addition, in [6] (0.003 mg/mL, 15 min), the inhibition amounted to 0%. In [6] (0.003 mg/mL, 30 min), the inhibition was found to be 0.5 ± 2.9%. Further, the inhibition in series [6] (0.003 mg/mL, 60 min) was found to be 1.7 ± 2.9%. The inhibition in [6] (0.003 mg/mL, 90 min) came out at 2.5 ± 2.9%. In addition, the inhibition in [6] (0.003 mg/mL, 120 min) came out at 3.3 ± 2.9%. In addition, in [6] (0.03 mg/mL, 0 min), the inhibition turned out to be 0.7 ± 2.7%. The compound further registered an inhibition in series [6] (0.03 mg/mL, 5 min) of 5.2 ± 1.8%. In series [6] (0.03 mg/mL, 15 min), the inhibition stood at 9 ± 1.6%. In [6] (0.03 mg/mL, 30 min), this compound came in with an inhibition of 14.3 ± 1.1%. This compound registered an inhibition in series [6] (0.03 mg/mL, 60 min) of 23.7 ± 0.8%. In series [6] (0.03 mg/mL, 90 min), this compound registered an inhibition of 31.7 ± 0.1%. The compound also yielded an inhibition in series [6] (0.03 mg/mL, 120 min) of 39.6 ± 0.1%. Besides, in series [1], the activity at 10 µM turned out to be 73.1 ± 3% and the activity at 50 µM turned out to be 35.4 ± 8.9%. In addition, in series [2], the activity at 10 µM was found to be 79.6 ± 7.7% and the activity at 50 µM was 14.1 ± 5.8%. In [3], the activity at 10 µM stood at 93.6 ± 14.7% and the activity at 50 µM is 10.4 ± 4.1%. Moreover, in [7], the activity at 10 µM was found to be 63.3 ± 15% and the activity at 50 µM is 33.2 ± 6.1%. Moreover, the cell growth % in series [8] is on record as 54.8–95.0%.
Consider `C=CCNC(=[Se])NC(=O)/C=C/c1cccs1` [Compound 4.II, (E)-N-(allylcarbamoselenoyl)-3-(thiophen-2-yl)acrylamide], for which the melting point fell in the range of 104 to 105 °C. In series [6] (0.003 mg/mL, 0 min), this compound registered an inhibition of 0%. In series [6] (0.003 mg/mL, 5 min), this compound came in with an inhibition of 0%. In series [6] (0.003 mg/mL, 15 min), this compound returned an inhibition of 0%. Also, in [6] (0.003 mg/mL, 30 min), the inhibition was 0.5 ± 2.5%. The inhibition in series [6] (0.003 mg/mL, 60 min) was found to be 1.7 ± 2.4%. In addition, the inhibition in series [6] (0.003 mg/mL, 90 min) was 2.5 ± 2.4%. The inhibition in [6] (0.003 mg/mL, 120 min) is 3.1 ± 2.3%. This compound returned an inhibition in series [6] (0.03 mg/mL, 0 min) of 0.9 ± 2.8%. This compound also gave an inhibition in series [6] (0.03 mg/mL, 5 min) of 6.1 ± 1.7%. The same compound displayed an inhibition in series [6] (0.03 mg/mL, 15 min) of 9.9 ± 1.5%. In [6] (0.03 mg/mL, 30 min), the inhibition is 15.5 ± 1.4%. The same compound registered an inhibition in [6] (0.03 mg/mL, 60 min) of 25.6 ± 1.3%. The same compound showed an inhibition in [6] (0.03 mg/mL, 90 min) of 35 ± 0.6%. This compound had an inhibition in series [6] (0.03 mg/mL, 120 min) of 44.3 ± 0.6%. For the same compound, in [1], the activity at 10 µM was found to be 79.2 ± 9.2% and the activity at 50 µM was 44.2 ± 6.2%. Besides, in series [2], the activity at 10 µM was found to be 81.1 ± 6.7% and the activity at 50 µM was 17.6 ± 6.6%. Moreover, in [3], the activity at 10 µM came out at 67.2 ± 7.1% and the activity at 50 µM was 13.8 ± 1.2%. Besides, in [7], the activity at 10 µM came out at 100 ± 7.1% and the activity at 50 µM amounted to 32.9 ± 5%.
With `C=CCNC(=[Se])NC(=O)/C=C/c1ccc2c(c1)OCO2` [Compound 9.II, (E)-N-(allylcarbamoselenoyl)-3-(benzo[d][1,3]dioxol-5-yl)acrylamide], the melting point was in the range of 187 to 188 °C. Besides, in series [6] (0.003 mg/mL, 0 min), the inhibition was found to be 0.1 ± 2.9%. Moreover, the inhibition in series [6] (0.003 mg/mL, 5 min) worked out at 0.3 ± 2.7%. The inhibition in series [6] (0.003 mg/mL, 15 min) is 0.8 ± 2.5%. Moreover, in series [6] (0.003 mg/mL, 30 min), the inhibition was found to be 1.5 ± 2.4%. The compound also had an inhibition in series [6] (0.003 mg/mL, 60 min) of 2.3 ± 2.3%. The same compound yielded an inhibition in series [6] (0.003 mg/mL, 90 min) of 3 ± 2.3%. This compound also came in with an inhibition in series [6] (0.003 mg/mL, 120 min) of 3.5 ± 2.3%. Further, the inhibition in [6] (0.03 mg/mL, 0 min) came to 1.9 ± 1.9%. In addition, the inhibition in [6] (0.03 mg/mL, 5 min) stood at 6.1 ± 1.7%. The compound also came in with an inhibition in series [6] (0.03 mg/mL, 15 min) of 10.1 ± 1.2%. Moreover, the inhibition in [6] (0.03 mg/mL, 30 min) worked out at 14.7 ± 1.1%. This compound also showed an inhibition in series [6] (0.03 mg/mL, 60 min) of 22.3 ± 1.2%. In addition, in series [6] (0.03 mg/mL, 90 min), the inhibition was determined as 29 ± 1.2%. In series [6] (0.03 mg/mL, 120 min), the inhibition was 35.2 ± 1.3%. In addition, the cell growth % in series [1] (HTB-54, 10 µM, 48 h, MTT) is reported as 82.8%. Also, in [1], the activity at 10 µM worked out at 82.8 ± 2.8% and the activity at 50 µM was determined as 60 ± 4.5%. In series [2], the activity at 10 µM is 83.8 ± 7.9% and the activity at 50 µM amounted to 71.3 ± 5.3%. Also, in series [3], the activity at 10 µM stood at 110 ± 9% and the activity at 50 µM is 69.6 ± 6.1%. Also, in series [7], the activity at 10 µM amounted to 113 ± 7.8% and the activity at 50 µM is 103 ± 7.1%.
